Reference: US10358463B2, “Immunomodulators” (BRISTOL-MYERS SQUIBB COMPANY, priority 2016, dated 2019)
Numbered stars: 1 amine (or outer) side, 2 acyl side, 3 side chain; on linkers, the order of the positions; unused ones are H or OH. Bridge positions count the residues as written; N and C are the ends. Square brackets hold non-standard residues; d marks the D form. Peptide text beside a SMILES is read from it. ξ: configuration not given here. Trp(4-aza,1-CH2COOH) = N[C@@H](Cc1cn(CC(=O)O)c2cccnc12)C(=O)O; Trp(7-aza,1-CH2COOH) = N[C@@H](Cc1cn(CC(=O)O)c2ncccc12)C(=O)O; X10 = COc1ccc2c(c1)c(C[C@H](N[*:1])C(=O)[*:2])cn2CC(=O)O; X5 = O=C(O)Cn1nc(C[C@H](N[*:1])C(=O)[*:2])c2ccccc21; Trp(5-CN) = N#Cc1ccc2[nH]cc(C[C@H](N)C(=O)O)c2c1; X2 = O=C(O)Cc1cn(CC(N[*:1])C(=O)[*:2])c2cccnc12; X8 = O=C(O)Cn1cc(CC(N[*:1])C(=O)[*:2])c2cncnc21; X9 = O=C(O)Cn1cc(CC(N[*:1])C(=O)[*:2])c2cnccc21; X15 = O=C([C@H](Cc1n[nH]c2ccccc12)N[*:1])[*:2]; X4 = Cc1cccc2c(CC(N[*:1])C(=O)[*:2])n[nH]c12; Hyp = O=C(O)[C@@H]1C[C@@H](O)CN1; NMeNle = CCCC[C@H](NC)C(=O)O; NMeA = CN[C@@H](C)C(=O)O; Dab = NCC[C@H](N)C(=O)O; Dap = NC[C@H](N)C(=O)O; ξP = O=C(O)C1CCCN1

Target: T1, PD-1-Ig binding to PD-L1-TVMV-His (PD-L1-His) (Homo sapiens, UniProt Q9NZQ7)
T1 construct: hPDL1 (19-239)-TVMV-His; TVMV protease cleavage site (C); made in house; host or cells: HEK293T cells
T1 sequence (Q9NZQ7 with tags, fused parts or gaps): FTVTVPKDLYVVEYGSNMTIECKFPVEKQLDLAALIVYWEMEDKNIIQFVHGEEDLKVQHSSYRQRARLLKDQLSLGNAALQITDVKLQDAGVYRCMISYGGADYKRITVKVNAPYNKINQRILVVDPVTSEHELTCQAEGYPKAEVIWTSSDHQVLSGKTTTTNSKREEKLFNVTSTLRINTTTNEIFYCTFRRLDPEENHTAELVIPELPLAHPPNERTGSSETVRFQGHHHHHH
Test: PD-1/PD-L1 Homogenous Time-Resolved Fluorescence (HTRF) binding assay
Conditions: PD-1-Ig (20 nM)/PD-L1-His (10 nM)
Source text: The ability of the macrocyclic peptides of the present disclosure to bind to PD-L1 was investigated using a PD-1/PD-L1 Homogenous Time-Resolved Fluorescence (HTRF) binding assay.
Homogenous Time-Resolved Fluorescence (HTRF) Assays of Binding of Soluble PD-1 to Soluble PD-L1. Soluble PD-1 and soluble PD-L1 refers to proteins with carboxyl-end truncations that remove the transmembrane-spanning regions and are fused to heterologous sequences, specifically the Fc portion of the human immunoglobuling G sequence (Ig) or the hexahistidine epitope tag (His). All binding studies were performed in an HTRF assay buffer consisting of dPBS supplemented with 0.1% (w/v) bovine serum albumin and 0.05% (v/v) Tween-20. For the PD-1-Ig/PD-L1-His binding assay, inhibitors were pre-incubated with PD-L1-His (10 nM final) for 15 m in 4 μl of assay buffer, followed by addition of PD-1-Ig (20 nM final) in 1 μl of assay buffer and further incubation for 15 m. PD-L1 fusion proteins from either human, cynomologous macaques, mouse, or other species were used. HTRF detection was achieved using europium crypate-labeled anti-Ig monoclonal antibody (1 nM final) and allophycocyanin (APC) labeled anti-His monoclonal antibody (20 nM final). Antibodies were diluted in HTRF detection buffer and 5 μl was dispensed on top of binding reaction. The reaction was allowed to equilibrate for 30 minutes and signal (665 nm/620 nm ratio) was obtained using an EnVision fluorometer. Additional binding assays were established between PD-1-Ig/PD-L2-His (20 and 5 nM, respectively), CD80-His/PD-L1-Ig (100 and 10 nM, respectively) and CD80-His/CTLA4-Ig (10 and 5 nM, respectively). Binding/competition studies between biotinylated Compound No. 71 and human PD-L1-His were performed as follows. Macrocyclic peptide inhibitors were pre-incubated with PD-L1-His (10 nM final) for 60 minutes in 4 μl of assay buffer followed by addition of biotinylated Compound No. 71 (0.5 nM final) in 1 μl of assay buffer. Binding was allowed to equilibrate for 30 minutes followed by addition of europium crylated labeled Streptavidin (2.5 pM final) and APC-labeled anti-His (20 nM final) in 5 μl of HTRF buffer. The reaction was allowed to equilibrate for 30 m and signal (665 nm/620 nm ratio) was obtained using an EnVision fluorometer.
Recombinant Proteins. Carboxyl-truncated human PD-1 (amino acids 25-167) with a C-terminal human Ig epitope tag [hPD-1 (25-167)-3S-IG] and human PD-L1 (amino acids 18-239) with a C-terminal His epitope tag [hPD-L1(19-239)-tobacco vein mottling virus protease cleavage site (TVMV)-His] were expressed in HEK293T cells and purified sequentially by recombinant Protein A affinity chromatography and size exclusion chromatography. Human PD-L2-His (Sino Biologicals), CD80-His (Sino Biologicals), CTLA4-Ig (RnD Systems) were all obtained through commercial sources.

IC50 (range class) [nM]	IC50 (numeric value) [nM]	Compound
100 to 990		CCCC[C@H]1C(=O)N(C)[C@@H](CCCC)C(=O)N[C@@H](C)C(=O)N[C@H](C(=O)NCC(N)=O)CSCC(=O)N[C@@H](Cc2ccc(O)cc2)C(=O)N(C)[C@@H](C)C(=O)N[C@@H](CC(N)=O)C(=O)N2CCCC2C(=O)N[C@@H](Cc2cnc[nH]2)C(=O)N[C@@H](CCC(N)=O)C(=O)N2C[C@H](O)C[C@H]2C(=O)N[C@@H](Cc2c[nH]c3ccccc23)C(=O)N[C@@H](CO)C(=O)N[C@@H](Cc2c[nH]c3ccc(C#N)cc23)C(=O)N1C (stereo partly drawn) [Example 1284] ({CH2CO}-Y[NMeA]N[ξP]HQ[Hyp]WS[Trp(5-CN)][NMeNle][NMeNle]ACG-NH2; thioether N-14)
100 to 990		CCCC[C@H]1C(=O)N(C)[C@@H](CCCC)C(=O)N[C@@H](C)C(=O)N[C@H](C(=O)NCC(N)=O)CSCC(=O)N[C@@H](Cc2ccc(O)cc2)C(=O)N(C)[C@@H](C)C(=O)N[C@@H](CC(N)=O)C(=O)N2CCCC2C(=O)N[C@@H](Cc2cnc[nH]2)C(=O)N[C@@H](CCC(N)=O)C(=O)N2C[C@H](O)C[C@H]2C(=O)N[C@@H](Cc2c[nH]c3ccccc23)C(=O)N[C@@H](CO)C(=O)N[C@@H](Cc2n[nH]c3ccccc23)C(=O)N1C (stereo partly drawn) [Example 1286] ({CH2CO}-Y[NMeA]N[ξP]HQ[Hyp]WS[X15][NMeNle][NMeNle]ACG-NH2; thioether N-14)
	7140	CCCC[C@H]1C(=O)N(C)[C@@H](CCCC)C(=O)N[C@@H](C)C(=O)N[C@H](C(=O)NCC(N)=O)CSCC(=O)N[C@@H](Cc2ccc(O)cc2)C(=O)N(C)[C@@H](C)C(=O)N[C@@H](CC(N)=O)C(=O)N2CCCC2C(=O)N[C@@H](Cc2cnc[nH]2)C(=O)N[C@@H](CCC(N)=O)C(=O)N2C[C@H](O)C[C@H]2C(=O)N[C@@H](Cc2c[nH]c3ccccc23)C(=O)N[C@@H](CO)C(=O)NC(Cc2n[nH]c3c(C)cccc23)C(=O)N1C (stereo partly drawn) [Example 1288] ({CH2CO}-Y[NMeA]N[ξP]HQ[Hyp]WS[X4][NMeNle][NMeNle]ACG-NH2; thioether N-14)
10 to 99		CCCC[C@H]1C(=O)N(C)[C@@H](CCCC)C(=O)N[C@@H](CC(C)C)C(=O)N[C@H](C(=O)NCC(N)=O)CSCC(=O)N[C@@H](Cc2ccc(O)cc2)C(=O)N(C)[C@@H](C)C(=O)N[C@@H](CC(N)=O)C(=O)N2CCC[C@H]2C(=O)N[C@@H](CN)C(=O)N[C@@H](CC(C)C)C(=O)N2C[C@H](O)C[C@H]2C(=O)N[C@@H](Cc2c[nH]c3ccccc23)C(=O)N[C@@H](CCN)C(=O)NC(Cc2cn(CC(=O)O)c3ccncc23)C(=O)N1C (stereo partly drawn) [Example 10001] ({CH2CO}-Y[NMeA]NP[Dap]L[Hyp]W[Dab][X9][NMeNle][NMeNle]LCG-NH2; thioether N-14)
100 to 990		CCCC[C@H]1C(=O)N(C)[C@@H](CCCC)C(=O)N[C@@H](CC(C)C)C(=O)N[C@H](C(=O)NCC(N)=O)CSCC(=O)N[C@@H](Cc2ccc(O)cc2)C(=O)N(C)[C@@H](C)C(=O)N[C@@H](CC(N)=O)C(=O)N2CCC[C@H]2C(=O)N[C@@H](CN)C(=O)N[C@@H](CC(C)C)C(=O)N2C[C@H](O)C[C@H]2C(=O)N[C@@H](Cc2c[nH]c3ccccc23)C(=O)N[C@@H](CCN)C(=O)NC(Cc2cn(CC(=O)O)c3ncncc23)C(=O)N1C (stereo partly drawn) [Example 10002] ({CH2CO}-Y[NMeA]NP[Dap]L[Hyp]W[Dab][X8][NMeNle][NMeNle]LCG-NH2; thioether N-14)
100 to 990		CCCC[C@H]1C(=O)N(C)[C@@H](CCCC)C(=O)N[C@@H](CC(C)C)C(=O)N[C@H](C(=O)NCC(N)=O)CSCC(=O)N[C@@H](Cc2ccc(O)cc2)C(=O)N(C)[C@@H](C)C(=O)N[C@@H](CC(N)=O)C(=O)N2CCC[C@H]2C(=O)N[C@@H](CN)C(=O)N[C@@H](CC(C)C)C(=O)N2C[C@H](O)C[C@H]2C(=O)N[C@@H](Cc2c[nH]c3ccccc23)C(=O)N[C@@H](CCN)C(=O)NC(Cn2cc(CC(=O)O)c3ncccc32)C(=O)N1C (stereo partly drawn) [Example 10003] ({CH2CO}-Y[NMeA]NP[Dap]L[Hyp]W[Dab][X2][NMeNle][NMeNle]LCG-NH2; thioether N-14)
1 to 9.9		CCCC[C@H]1C(=O)N(C)[C@@H](CCCC)C(=O)N[C@@H](CC(C)C)C(=O)N[C@H](C(=O)NCC(N)=O)CSCC(=O)N[C@@H](Cc2ccc(O)cc2)C(=O)N(C)[C@@H](C)C(=O)N[C@@H](CC(N)=O)C(=O)N2CCC[C@H]2C(=O)N[C@@H](CN)C(=O)N[C@@H](CC(C)C)C(=O)N2C[C@H](O)C[C@H]2C(=O)N[C@@H](Cc2c[nH]c3ccccc23)C(=O)N[C@@H](CCN)C(=O)N[C@@H](Cc2nn(CC(=O)O)c3ccccc23)C(=O)N1C [Example 10500] ({CH2CO}-Y[NMeA]NP[Dap]L[Hyp]W[Dab][X5][NMeNle][NMeNle]LCG-NH2; thioether N-14)
1 to 9.9		CCCC[C@H]1C(=O)N(C)[C@@H](CCCC)C(=O)N[C@@H](CC(C)C)C(=O)N[C@H](C(N)=O)CSCC(=O)N[C@@H](Cc2ccc(O)cc2)C(=O)N(C)[C@@H](C)C(=O)N[C@@H](CC(N)=O)C(=O)N2CCC[C@H]2C(=O)N[C@@H](CN)C(=O)N[C@@H](CC(C)C)C(=O)N2C[C@H](O)C[C@H]2C(=O)N[C@@H](Cc2c[nH]c3ccccc23)C(=O)N[C@@H](CCN)C(=O)N[C@@H](Cc2nn(CC(=O)O)c3ccccc23)C(=O)N1C [Example 10501] ({CH2CO}-Y[NMeA]NP[Dap]L[Hyp]W[Dab][X5][NMeNle][NMeNle]LC-NH2; thioether N-14)
	13	CCCC[C@H]1C(=O)N(C)[C@@H](CCCC)C(=O)N[C@@H](CC(C)C)C(=O)N[C@H](C(N)=O)CSCC(=O)N[C@@H](Cc2ccc(O)cc2)C(=O)N(C)[C@@H](C)C(=O)N[C@@H](CC(N)=O)C(=O)N2CCC[C@H]2C(=O)N[C@@H](CN)C(=O)N[C@@H](CC(C)C)C(=O)N2C[C@H](O)C[C@H]2C(=O)N[C@@H](Cc2c[nH]c3ccccc23)C(=O)N[C@@H](CCN)C(=O)N[C@@H](Cc2cn(CC(=O)O)c3cccnc23)C(=O)N1C [Example 10502] ({CH2CO}-Y[NMeA]NP[Dap]L[Hyp]W[Dab][Trp(4-aza,1-CH2COOH)][NMeNle][NMeNle]LC-NH2; thioether N-14)
1 to 9.9		CCCC[C@H]1C(=O)N(C)[C@@H](CCCC)C(=O)N[C@@H](CC(C)C)C(=O)N[C@H](C(N)=O)CSCC(=O)N[C@@H](Cc2ccc(O)cc2)C(=O)N(C)[C@@H](C)C(=O)N[C@@H](CC(N)=O)C(=O)N2CCC[C@H]2C(=O)N[C@@H](CN)C(=O)N[C@@H](CC(C)C)C(=O)N2C[C@H](O)C[C@H]2C(=O)N[C@@H](Cc2c[nH]c3ccccc23)C(=O)N[C@@H](CCN)C(=O)N[C@@H](Cc2cn(CC(=O)O)c3ccc(OC)cc23)C(=O)N1C [Example 10503] ({CH2CO}-Y[NMeA]NP[Dap]L[Hyp]W[Dab][X10][NMeNle][NMeNle]LC-NH2; thioether N-14)
1 to 9.9		CCCC[C@H]1C(=O)N(C)[C@@H](CCCC)C(=O)N[C@@H](CC(C)C)C(=O)N[C@H](C(N)=O)CSCC(=O)N[C@@H](Cc2ccc(O)cc2)C(=O)N(C)[C@@H](C)C(=O)N[C@@H](CC(N)=O)C(=O)N2CCC[C@H]2C(=O)N[C@@H](CN)C(=O)N[C@@H](CC(C)C)C(=O)N2C[C@H](O)C[C@H]2C(=O)N[C@@H](Cc2c[nH]c3ccccc23)C(=O)N[C@@H](CCN)C(=O)N[C@@H](Cc2cn(CC(=O)O)c3ncccc23)C(=O)N1C [Example 10504] ({CH2CO}-Y[NMeA]NP[Dap]L[Hyp]W[Dab][Trp(7-aza,1-CH2COOH)][NMeNle][NMeNle]LC-NH2; thioether N-14)
10 to 99		CCCC[C@H]1C(=O)N(C)[C@@H](CCCC)C(=O)N[C@@H](CC(C)C)C(=O)N[C@H](C(=O)NCC(N)=O)CSCC(=O)N[C@@H](Cc2ccc(O)cc2)C(=O)N(C)[C@@H](C)C(=O)N[C@@H](CC(N)=O)C(=O)N2CCC[C@H]2C(=O)N[C@@H](CN)C(=O)N[C@@H](CC(C)C)C(=O)N2C[C@H](O)C[C@H]2C(=O)N[C@@H](Cc2c[nH]c3ccccc23)C(=O)N[C@@H](CCN)C(=O)N[C@@H](Cc2cn(CC(=O)O)c3ncccc23)C(=O)N1C [Example 10505] ({CH2CO}-Y[NMeA]NP[Dap]L[Hyp]W[Dab][Trp(7-aza,1-CH2COOH)][NMeNle][NMeNle]LCG-NH2; thioether N-14)
